Assay results reported in patent US20260041732A1, “USE OF APELIN FOR THE TREATMENT OF LYMPHEDEMA” (INSTITUT NATIONAL DE LA SANTE ET DE LA RECHERCHE MEDICALE, priority 2022, published 2026).

B1: VEGF-C: vascular endothelial growth factor C; media containing VEGF-C used as positive control on HDLEC (protein, listed as Homo sapiens)
chain: MHLLGFFSVACSLLAAALLPGPREAPAAAAAFESGLDLSDAEPDAGEATAYASKDLEEQLRSVSSVDELMTVLYPEYWKMYKCQLRKGGWQHNREQANLNSRTEETIKFAAAHYNTEILKSIDNEWRKTQCMPREVCIDVGKEFGVATNTFFKPPCVSVYRCGGCCNSEGLQCMNTSTSYLSKTLFEITVPLSQGPKPVTISFANHTSCRCMSKLDVYRQVHSIIRRSLPATLPQCQAANKTCPTNYMWNNHICRCLAQEDFMFSSDAGDDSTDGFHDICGPNKELDEETCQCVCRAGLRPASCGPHKELDRNSCQCVCKNKLFPSQCGANREFDENTCQCVCKRTCPRNQPLNPGKCACECTESPQKCLLKGKKFHHQTCSCYRRPCTNRQKACEPGFSYSEEVCRCVPSYWKRPQMS

Columns and labels:
C57B1/6 female mice [1] = test: Mouse model of secondary lymphedema, limb size measured using caliper; format: in vivo; settings: LV-apelin treated mice submitted to L-NAME treatment
Procedure: Mouse procedures were performed in accordance with EU and national regulation. C57B1/6 mouse were provided by Envigo. All experiments have been approved by the local branch Inserm Rangueil-Purpan of the Midi-Pyrénées ethics committee. Secondary lymphedema was established as previously described (Morfoisse et al. 2018). Briefly, lymphedema was established in the left upper limb of 6 weeks-old C57B1/6 female mice. A partial mastectomy of the second mammary gland is performed in association with axillary and brachial lymphadenectomy. Limb size was measured over time in the axillary region using caliper. Mice sustained edema for a period of 2 weeks. The day of the surgery, PBS or apelin lentiviral vector were injected in intradermic in the lymphedema limb (3 injections of 4 μL). […] For L-NAME (N^G-nitro-L-arginine methyl ester) (Sigma) treatment, L-NAME was resuspended in water (1 mg/ml) and mice were allowed to drink freely for 7 days.

C57B1/6 female mice [2] = test: Lymphangiography with FITC-Dextran in lymphedema mouse model; format: in vivo; settings: two weeks after surgery
Procedure: Two weeks after surgery, mice were anesthetized with an intraperitoneal injection of ketamine (100 mg/kg) (Zoletil 100, Virbac) and xylazine (10 mg/kg) (Rompun 2%, Bayer). FITC-Dextran ([…], 2 mg/mL, Sigma) was injected into the footpad of lymphedema and control limb. The fluorescent molecule was taken up by the lymphatics and excluded from the blood vessels. After 5 min, the skin was analyzed under the modular stereo microscope discovery. V12 stereo (Zeiss).

C57B1/6 female mice [3] = test: Evaluation of dermis fibrosis, Masson's trichrome coloration; format: in vivo, mouse; settings: lymphedema limb skin
Procedure: Dermis fibrosis was evaluated with Masson's trichrome coloration (MST-100T, Cliniscience). Skin sections were deparraffinized and tissue were stained according the manufacturer's recommendations. Images were acquired on a nanozoomer slide scanner. Dermis size quantification was performed using at least 10 measurements of the length between epidermis and hypodermis per field.

C57B1/6 female mice [4] = test: Histology of skin sections, Lyve1 and CD31 immunostaining; format: in vivo, mouse; settings: lymphedema limb skin
Procedure: Skin of lymphedema and control limb were collected 2 weeks after surgery and fixed in 10% neutral buffered formalin O/N at 4° C. Tissue are then embedded in paraffin and sectioned on a microtome. 5 μm sections were cut and placed on Superfrost Plus slides. Tissue were deparaffinized, rehydrated and antigen unmasking was realized with pH 9 Tris solution (H-3301, Vector Laboratories) 5 min three times in a microwave. After cooling, slides were washed in PBS and then blocked with 5% BSA solution at room temperature in humid chamber. Sections were incubated with primary antibodies O/N at 4° C. (Goat anti-murine Lyvel, R&D AF2125; rabbit anti-CD31, abcam Ab28364) and washed three times in PBS. Sections were incubated with the corresponding secondary antibodies conjugated to Alexa-488 or -594 for 1h at room temperature au 1/400 dilution. DNA was stained with DAPI. Slides were mounted with Dako Fluorescence Mounting Medium (S3023). Images were acquired a fluorescent inverted microscope (Leica, DMi8). Images were analysed with Fiji software.

[5] = test system: afferent collecting lymphatic vessels to the popliteal lymph node; test: Collecting vessel contraction measures (intravital imaging); format: in vivo, mouse; settings: L-NAME in drinking water 7 days
Procedure: Vessel contraction measurement of afferent collecting lymphatic vessels to the popliteal lymph node (PLN) were performed as described previously (Liao S. et al.). Briefly mice were anesthetized with an intraperitoneal injection of ketamine (100 mg/Kg) and xylazine (10 mg/kg). 6 μL of FITC-Dextran was injected into the footpad of the lower right limb. The skin is carefully removed to expose afferent collecting lymphatic vessels to the PLN. Mouse is then placed into a petri dish and onto the stage of an inverted microscope (Leica, DMi8). 4 videos of 90 sec were acquired per mice and the number of contraction and dilatation (difference between maximum and minimum diameter) was analysed using Fiji software. To assess the effect of Apelin, lentiviral vector was injected into the derm in the lower right limb 7 days before the experiment. For L-NAME study, mice were allowed to drink freely for 7 days.

[6] = test system: Human dermal lymphatic endothelial cells (HDLEC); test: Bulk RNA-sequencing, differential gene expression and GO analysis; format: cell-based; settings: compared to WT
Procedure: Human dermal lymphatic endothelial cells (HDLEC) (single donor, juvenile foreskin, Promocell, C-12216, >95% of the cells are CD31 positive and podoplanin positive) were cultured in Endothelial Cell Media MV2 (EGM-MV2, Promocell, C-22121). NIH3T3 were cultured in Dulbecco's modified Eagle's medium (DMEM, Sigma, D6429) supplemented with 10% fetal bovine serum (FBS, Gibco, 10270-06) and 1% penicillin-streptomycin. Endothelial cells were used at passage 3-6 and human fibroblasts were used at passage 4-7. Cells were cultured at 37° C. in a 5% CO2 incubator. Culture medium was changed 3 times a week, and the cells were passaged ⅓. For collecting conditioned media, NIH3T3 were grown in 10 cm dishes, after reaching confluence, medium was removed and the cells were washed once with PBS. NIH3T3 were cultured overnight in 5 mL reduced serum medium optiMEM (Gibco), the medium was then collected and used for experiments. HDLEC were treated with 50% conditioned media/50% MV2-05% FBS. Total RNA from HDLEC transduced or not with Apelin Lentivector were prepared using the RNeasy mini kit (Qiagen 74106). Total RNA were then subjected to ribosomal-RNA depleted RNA sequencing (RNA-Seq) protocol performed by Genewiz company using Illumina HiSeq, PE 2×150 configuration. Sequence reads were trimmed to remove possible adapter sequences and nucleotides with poor quality using Trimmomatic v.0.36. The trimmed reads were mapped to the Homo sapiens GRCh38 reference genome available on ENSEMBL using the STAR aligner v.2.5.2b. The STAR aligner is a splice aligner that detects splice junctions and incorporates them to help align the entire read sequences. BAM files were generated as a result of this step. Unique gene hit counts were calculated by using feature Counts from the Subread package v.1.5.2. The hit counts were summarized and reported using the gene_id feature in annotation file. Only unique reads that fell within exon regions were counted. Distribution of read counts in libraries were examined before and after normalization. The original read counts were normalized to adjust for various factors such as variations of sequencing yield between samples. These normalized read counts were used to accurately determine differentially expressed genes. Data quality assessments were performed to detect any samples that are not representative of their group, and thus, may affect the quality of the analysis. The overall similarity among samples were assessed by the Euclidean distance between samples. This method was used to examine which samples are similar/different to each other and if they fit to the expectation from the experiment design. The shorter the distance, the more closely related the samples are. Samples were then clustered by using the distance. A principal component analysis was also performed to reveal the similarity between samples based on the distance matrix. After extraction of gene hit counts, the gene hit counts table was used for downstream differential expression analysis. Using DESeq2, a comparison of gene expression between Apelin transduced LEC against non-transduced LEC was performed. The Wald test was used to generate p-values and log2 fold changes. […] The global transcriptional change across the two groups compared was visualized by a volcano plot. Each data point in the volcano plot represents a gene. The log2 fold change of each gene is represented on the x-axis and the log10 of its adjusted p-value is on the y-axis.

[7] = test system: Human dermal lymphatic endothelial cells (HDLEC); test: Immunoblotting of AKT, ERK and eNOS phosphorylation; format: cell-based; settings: conditioned media
Procedure: Human dermal lymphatic endothelial cells (HDLEC) (single donor, juvenile foreskin, Promocell, C-12216, >95% of the cells are CD31 positive and podoplanin positive) were cultured in Endothelial Cell Media MV2 (EGM-MV2, Promocell, C-22121). NIH3T3 were cultured in Dulbecco's modified Eagle's medium (DMEM, Sigma, D6429) supplemented with 10% fetal bovine serum (FBS, Gibco, 10270-06) and 1% penicillin-streptomycin. Endothelial cells were used at passage 3-6 and human fibroblasts were used at passage 4-7. Cells were cultured at 37° C. in a 5% CO2 incubator. Culture medium was changed 3 times a week, and the cells were passaged ⅓. For collecting conditioned media, NIH3T3 were grown in 10 cm dishes, after reaching confluence, medium was removed and the cells were washed once with PBS. NIH3T3 were cultured overnight in 5 mL reduced serum medium optiMEM (Gibco), the medium was then collected and used for experiments. HDLEC were treated with 50% conditioned media/50% MV2-05% FBS.
Cells were scrapped and lysed in RIPA buffer (RIPA 2X, Biotech RB4476) supplemented with phosphatase inhibitor (PhosSTOP Easypack, Roche0490687001) and protease inhibitors (protease inhibitor cocktail, Sigma Aldrich). Lysates were centrifuged at 13500 g for 10 minutes at 4° C. Supernatants were then collected and mix with Laemmli buffer containing dithiothreitol (DTT 1 mM). Protein were resolved on 4-15% SDS-PAGE gels and transferred to nitrocellulose membrane (Trans-Blot Turbo RTA transfer kit, #1704271, Biorad). Membranes were blocked for 1h at room temperature in 5% BSA-TBS-T (TBS-0.1% Tween 20) and probed with primary antibody overnight at 4° C. Antibody used are the following: Phospho AKT: AKT-p ser473 (CS #4060S), AKT: santa cruz H136 (S8312), Phospho ERK: ERK1/2-p (MAPKp42/44) (Thr202/Thr204) (cell signalling #9106), ERK ERK1/2-(MAPKp42/44) (Thr202/Thr204) (cell signalling #9102), Phospho eNOS (cell signalling #9571S), eNOS (cell signalling #5880S), E2F8 (Abcam, AB109596), VEGFR3 (RID system AF349), Phospho-VEGFR3 (Affinity AF3676), CCBE1 (Sigma SAB1402017).
After three washes in TBS-T, membranes were probed with HRP-conjugated secondary antibodies at 1/10000 dilution. Signals were visualized with chemiluminescence detection reagent (Sigma) on a Chemidoc (Biorad) digital acquisition system.

| Molecule | effect on apelin benefit on lymphedema (limb diameter) (C57B1/6 female mice [1]) | lymphatic vessel morphology / remodelling (lymphangiography) (C57B1/6 female mice [2]) | fibrosis (C57B1/6 female mice [3]) | lymphatic vessel dilatation (vessel area / diameter) (C57B1/6 female mice [4]) | effect on apelin-stimulated collector dilatation [5] | expression of genes related to VEGFC maturation (ADAMTS2, CCBE1) [6] | eNOS phosphorylation ([7]; HDLEC) | AKT activation (phosphorylation) ([7]; 24 h time course) | ERK activation ([7]; 24 h time course) |
| --- | --- | --- | --- | --- | --- | --- | --- | --- | --- |
| COC(=O)[C@@H](N)CCCNC(=N)N[N+](=O)[O-] [L-NAME, N^G-nitro-L-arginine methyl ester] | reversed the beneficial effect of apelin on lymphedema | reverse apelin effect on lymphatic vascular network | no effect on fibrosis | inhibited | completely reversed | – | – | – | – |
| B1 | – | – | – | – | – | improved | observed | strong activation | strong activation |
